Data taken from the NIST ThermoML archive (doi:10.1021/je100765j).

Experiment: xn = mol fraction of the nth substance listed
Conditions: 101 kPa, Liquid; for speed of sound: Sing-around technique in a fixed-path interferometer

CC(C)(C)Cl [2-chloro-2-methylpropane] + CC(C)OC(C)C
Conditions | mass density [kg/m3] | speed of sound [m/s]
283.15 K, x1 = 0.049 | 738.51 | 1064.9
283.15 K, x1 = 0.0996 | 743.477 | 1064.1
283.15 K, x1 = 0.1991 | 753.625 | 1062.7
283.15 K, x1 = 0.3212 | 766.738 | 1060.7
283.15 K, x1 = 0.4189 | 777.752 | 1059.1
283.15 K, x1 = 0.5148 | 789.053 | 1057.4
283.15 K, x1 = 0.6213 | 802.211 | 1055.4
283.15 K, x1 = 0.7152 | 814.386 | 1053.5
283.15 K, x1 = 0.8138 | 827.84 | 1051.4
283.15 K, x1 = 0.9079 | 841.342 | 1049.2
283.15 K, x1 = 0.9552 | 848.393 | 1048.1
288.15 K, x1 = 0.049 | 733.338 | 1042.5
288.15 K, x1 = 0.0996 | 738.271 | 1041.8
288.15 K, x1 = 0.1991 | 748.35 | 1040.4
288.15 K, x1 = 0.3212 | 761.373 | 1038.5
288.15 K, x1 = 0.4189 | 772.305 | 1037
288.15 K, x1 = 0.5148 | 783.527 | 1035.4
288.15 K, x1 = 0.6213 | 796.59 | 1033.5
288.15 K, x1 = 0.7152 | 808.683 | 1031.8
288.15 K, x1 = 0.8138 | 822.038 | 1029.8
288.15 K, x1 = 0.9079 | 835.444 | 1027.7
288.15 K, x1 = 0.9552 | 842.442 | 1026.6
293.15 K, x1 = 0.049 | 728.121 | 1020
293.15 K, x1 = 0.0996 | 733.024 | 1019.4
293.15 K, x1 = 0.1991 | 743.024 | 1018
293.15 K, x1 = 0.3212 | 755.959 | 1016.3
293.15 K, x1 = 0.4189 | 766.815 | 1014.9
293.15 K, x1 = 0.5148 | 777.959 | 1013.4
293.15 K, x1 = 0.6213 | 790.929 | 1011.6
293.15 K, x1 = 0.7152 | 802.935 | 1010
293.15 K, x1 = 0.8138 | 816.189 | 1008.1
293.15 K, x1 = 0.9079 | 829.491 | 1006.1
293.15 K, x1 = 0.9552 | 836.437 | 1005.1
298.15 K, x1 = 0.049 | 722.867 | 997.71
298.15 K, x1 = 0.0996 | 727.738 | 997.09
298.15 K, x1 = 0.1991 | 737.666 | 995.89
298.15 K, x1 = 0.3212 | 750.506 | 994.32
298.15 K, x1 = 0.4189 | 761.286 | 993.03
298.15 K, x1 = 0.5148 | 772.351 | 991.68
298.15 K, x1 = 0.6213 | 785.228 | 990.11
298.15 K, x1 = 0.7152 | 797.145 | 988.62
298.15 K, x1 = 0.8138 | 810.301 | 986.91
298.15 K, x1 = 0.9079 | 823.502 | 985.13
298.15 K, x1 = 0.9552 | 830.397 | 984.18
303.15 K, x1 = 0.049 | 717.578 | 975.46
303.15 K, x1 = 0.0996 | 722.411 | 974.84
303.15 K, x1 = 0.1991 | 732.264 | 973.65
303.15 K, x1 = 0.3212 | 745.015 | 972.13
303.15 K, x1 = 0.4189 | 755.716 | 970.88
303.15 K, x1 = 0.5148 | 766.702 | 969.59
303.15 K, x1 = 0.6213 | 779.48 | 968.1
303.15 K, x1 = 0.7152 | 791.311 | 966.67
303.15 K, x1 = 0.8138 | 804.371 | 965.04
303.15 K, x1 = 0.9079 | 817.469 | 963.34
303.15 K, x1 = 0.9552 | 824.312 | 962.38
308.15 K, x1 = 0.049 | 712.24 | 953.42
308.15 K, x1 = 0.0996 | 717.041 | 952.84
308.15 K, x1 = 0.1991 | 726.821 | 951.71
308.15 K, x1 = 0.3212 | 739.479 | 950.28
308.15 K, x1 = 0.4189 | 750.102 | 949.13
308.15 K, x1 = 0.5148 | 761.005 | 947.93
308.15 K, x1 = 0.6213 | 773.688 | 946.56
308.15 K, x1 = 0.7152 | 785.433 | 945.25
308.15 K, x1 = 0.8138 | 798.394 | 943.74
308.15 K, x1 = 0.9079 | 811.393 | 942.17
308.15 K, x1 = 0.9552 | 818.179 | 941.27
313.15 K, x1 = 0.049 | 706.86 | 931.51
313.15 K, x1 = 0.0996 | 711.627 | 930.96
313.15 K, x1 = 0.1991 | 721.331 | 929.87
313.15 K, x1 = 0.3212 | 733.893 | 928.52
313.15 K, x1 = 0.4189 | 744.44 | 927.44
313.15 K, x1 = 0.5148 | 755.257 | 926.35
313.15 K, x1 = 0.6213 | 767.848 | 925.1
313.15 K, x1 = 0.7152 | 779.502 | 923.88
313.15 K, x1 = 0.8138 | 792.364 | 922.47
313.15 K, x1 = 0.9079 | 805.264 | 921
313.15 K, x1 = 0.9552 | 811.999 | 920.15
